Reference: paper PMC11878239, “Biochemical investigations using mass spectrometry to monitor JMJD6-catalysed hydroxylation of multi-lysine containing bromodomain-derived substrates” (RSC Chemical Biology, 2025)
“Also recorded” adds a separate entry of the source.

What was measured:
[1] = retention on SPE cartridges; assay type: physicochemical; conditions: C4 SPE cartridge
Description: (§1) The JMJD6-catalysed hydroxylation of the BRD-derived substrate peptide was monitored at ambient temperature by SPE-MS using a RapidFire RF 365 high-throughput sampling robot (Agilent) attached to an iFunnel Agilent 6550 accurate mass quadrupole time-of-flight (Q-TOF) mass spectrometer, which was operated in the positive ionization mode. Assay samples were aspirated under vacuum for 0.4 s, then loaded onto a C4 solid phase extraction (SPE) cartridge. After loading, the C4 SPE cartridge was washed with 0.1%v/v aqueous formic acid to remove non-volatile buffer salts (5 s, 1.5 mL min^−1). The peptide was eluted from the SPE cartridge with 0.1%v/v aqueous formic acid in 75/25v/v acetonitrile/water into the mass spectrometer (5 s, 1.6 mL min^−1) and the SPE cartridge re-equilibrated with 0.1%v/v aqueous formic acid (1 s, 1.25 mL min^−1).

full-length His6-JMJD6 [2] = target: T1, full-length His6-JMJD6 (Homo sapiens, UniProt Q6NYC1); experiment: SPE-MS time-course of JMJD6-catalysed hydroxylation of BRD-derived peptides; assay type: biochemical; conditions: 0.05 μM JMJD6, 2 μM peptide, 2OG 200 μM, FAS 2 μM, LAA 100 μM, Tris 50 mM pH 7.5
T1 construct: An enzyme mixture (10 μL) containing full-length His6-JMJD6 (5 μM; final concentration: 0.05 μM); made in house; host or cells: Escherichia coli BL21 (DE3), pET-28a(+) plasmid
Experimental: Fig. 2 JMJD6-catalysed hydroxylation of homologous 40 mer peptides derived from bromodomain-containing proteins BRD2, BRD3, and BRD4. (a)–(c) Red MS spectra: JMJD6-catalysed hydroxylation after 10 min of (a) BRD2_520–559, (b) BRD3_463–502, and (c) BRD4_511–550. Black MS spectra: no enzyme controls. (d)–(f) JMJD6-catalysed hydroxylation of (d) BRD2_520–559, (e) BRD3_463–502, and (f) BRD4_511–550 showing the relative abundance of the non-hydroxylated substrate (orange circles), mono-hydroxylated product (green squares), di-hydroxylated product (purple triangles) and tri-hydroxylated product (light blue diamonds) over time. Data are means of three independent runs (n = 3; means ± SD).
as §1
Peaks corresponding to the m/z +5 charge states of the BRD-derived substrate peptide and the hydroxylated product peptides were extracted from the ion chromatogram and integrated using RapidFire Integrator 4.3.0 (Agilent). Peak area data were exported into Microsoft Excel and used to calculate the relative abundance of the mono-hydroxylated product peptide using the following equation:
% of mono-hydroxylated product peptide = 100 × (integral of mono-hydroxylated product peptide)/(integral of non-hydroxylated substrate peptide + sum of integrals of all hydroxylated product peptides). Note that for the time-period used to calculate initial reaction velocities, negligible amounts of multi-hydroxylated product peptide were observed (<5%); therefore, the sum of integrals of all hydroxylated product peptides ≈ the integral of the mono-hydroxylated product peptide.

full-length His6-JMJD6 [3] = target: T1, full-length His6-JMJD6; experiment: SPE-MS kinetics of JMJD6 for O2; assay type: biochemical
Experimental: Recombinant human JMJD6 (full length with a N-terminal His6-tag) was produced in Escherichia coli BL21 (DE3) cells using a pET-28a(+) plasmid and purified by standard Ni(II)-affinity size-exclusion chromatography, as previously reported.[40] […] Purified JMJD6 was stored at −78 °C; fresh aliquots were used for all JMJD6 assays.
Assays to determine the kinetic parameters of JMJD6 for O2 were performed in 2 mL gas-tight glass vials (Sigma-Aldrich) in independent triplicates. 50 mM Tris buffer (pH 7.5; 0.95 mL) was incubated in a 2 mL gas-tight glass vial at 37 °C for 30 min with a fixed O2 concentration (in N2; specified in Fig S9, ESI ^†), adjusted using a mass flow controller. […] The JMJD6-catalysed reaction was performed at 37 °C at a fixed O2 concentration and was stopped after the reaction time specified (Fig. S9, ESI ^†) by the addition of 20%v/v aqueous formic acid (100 μL) and analysed by SPE-MS. The %-concentration of O2 in N2, adjusted with a mass flow controller, was converted into an O2 concentration [μM] by calibration using a standard (i.e., y[μM] = 9.026·x[%]).[100] Data were analysed by SPE-MS as described above to calculate apparent JMJD6 kinetic parameters for O2.

number of hydroxylation products observed (+16 Da mass shifts) (full-length His6-JMJD6 [2]; initial time-course, n = 3): two
Sequence: LAELQEQLKAVHEQLAALSQPQQNKPKKKEKDKKEKKKEK [BRD4_511–550, 40-mer peptide fragment derived from human BRD4, JMJD6 substrate, prepared by SPPS]
retention on SPE cartridge [1]: efficiently retained on a C4 SPE cartridge | hydroxylation by JMJD6 (in words) (full-length His6-JMJD6 [2]; time-course, SPE-MS): efficiently hydroxylated by isolated recombinant JMJD6; also recorded: mono-hydroxylated more efficiently than BRD3_463–502 whilst showing substantially lower levels of di-hydroxylation and no tri-hydroxylation by comparison with BRD2_520–559; also recorded: multiple hydroxylations | JMJD6-catalysed hydroxylation at low O2 (full-length His6-JMJD6 [3]; [O2] < 2.5%): inhibited at low oxygen concentrations; also recorded: sensitive to low O2 concentrations | di- or higher-order hydroxylation (full-length His6-JMJD6 [3]; varied O2, 37 °C, 60 or 90 s): no evidence for di- (or higher order) hydroxylation
